US4593036A, “(-)-Trans-4-(4-fluorophenyl)-3-[(4-methoxyphenoxy)meth yl]-1-methylpiperidine useful as 5-HT potentiator” (priority 1984, dated 1986)

Assays:
[1] = tested on: 5-HT uptake; assay: Test 173: potentiation of 5-HTP (5-hydroxytryptophane) induced hypermotility in mice (inhibition of 5HT uptake, or 5HT potentiation, test); format: in vivo, mice (female, NMRI strain); settings: for ED50: Mus musculus, sc, read-out: Test 173 (dose increasing the activity to double the activity found with controls receiving 5-HTP alone; ED50), s.c., 5-HTP 150 mg/kg i.p., motility 45-75 min after 5-HTP, water-soluble salt; for FG 8033 is better by: 5-HT Potentiation % / FG 8033 is better by: 5-HT Potentiation Factor: FG 8033 compared with the listed compound, mice s.c.
Excerpt: I. POTENTIATION OF 5-HTP (5-HYDROXYTRYPTOPHANE) INDUCED HYPERMOTILITY IN MICE
This behavior is characterized by continuous jerky locomotion, head movements from side to side, abduction of the hind limbs, tremor, and lordosis.
Measurement of the motility after administration of test drugs to 5-HTP-pretreated mice is therefore used as a test for 5-HT-potentiation, which most probably proceeds through an inhibition of 5-HT uptake.
Female mice of the NMRI strain weighing 20-22 g are used. The controls receive 5-HTP 150 mg/kg (15 ml/kg) i.p. (i.p.=intraperitoneally) and thirty (30) minutes later physiological saline (20 ml/kg) s.c. (s.c.=subcutaneously). The motility is measured by an Animex™ motimeter 45-75 minutes after 5-HTP administration. The test animals received test substance s.c. (20 ml/kg) instead of physiological saline. Five groups of two (2) mice are used for control and per dose of each test drug. the test substance is dosed according to the dose scale 1, 1.6, 2.5, 4, 6.3, and 10 mg/kg etc.
The activity of the test animals is compared to the activity of controls. The best straight line is fitted through the points in a coordinate system (abscissa log dose, ordinate log activity). […] The activity of controls is investigated in thirty (30) groups of two (2) mice.

[2] = tested on: mice; assay: in vivo; settings: for FG 8033 is better by: T.I. % / FG 8033 is better by: T.I. Factor: FG 8033 compared with the listed compound, mice s.c.
Experimental: (§1) (J. Buus Lassen, European Journal of Pharmacology 47, 351-358 (1978)). See also Squires in Acta Pharmacol. et Toxicol, 1972, 31 Suppl. 1,35 for a description of a further procedure for measurement of the same 5-HT uptake-inhibitory phenomenon.
(§2) II. ACUTE TOXICITY IN MICE
(§3) A variation of the procedure of J. Buus Lassen, et al. in European Journal of Pharmacology 32, 108-115 (1975) is employed. The test drug is administered s.c. in increasing doses to mice, four (4) animals at each dose level.
(§4) Results are expressed as LD50 = . . . mg/kg s.c.

[3] = in vivo; settings: mouse, in vivo, sc
Experimental: as §1, §2, §3, §4

[4] = versus (+) trans isomer FG 8032
[5] = versus (+), trans des-p-fluoro compound FG 4963
[6] = versus (-), trans des-p-fluoro compound FG 4962

| SMILES | ED50 ([1]; mice) [mg/kg] | FG 8033 is better by: 5-HT Potentiation % [1] [%] | FG 8033 is better by: 5-HT Potentiation Factor [1] | FG 8033 is better by: T.I. % [2] [%] | FG 8033 is better by: T.I. Factor [2] | further results |
| --- | --- | --- | --- | --- | --- | --- |
| COc1ccc(OC[C@@H]2CN(C)CC[C@H]2c2ccccc2)cc1 (single isomer, unassigned) [FG 4962, reference compound] | 3.8 |  |  |  |  |  |
| COc1ccc(OC[C@@H]2CNCC[C@H]2c2ccc(F)cc2)cc1 (single isomer, unassigned) [FG 7080, (-)-trans-4-(4-fluorophenyl)-3-[(4-methoxyphenoxy)-methyl]-piperidine] | 1 |  |  |  |  |  |
| CN1CC[C@@H](c2ccc(F)cc2)[C@H](COc2ccc3c(c2)OCO3)C1 (single isomer, unassigned) [FG 7043, reference compound] | 4 |  |  |  |  |  |
| COc1ccc(OC[C@@H]2CN(C)CC[C@H]2c2ccc(F)cc2)cc1 (relative stereo) [FG 98-I] | 1.3 | 260 | 2.6 | 174 | 1.74 |  |
| COc1ccc(OC[C@H]2CNCC[C@@H]2c2ccccc2)cc1 (single isomer, unassigned) [FG 4996, reference compound] | 9 | 1800 | 18 | 5714 | 57.14 |  |
| COc1ccc(OC[C@H]2CN(C)CC[C@@H]2c2ccccc2)cc1 (single isomer, unassigned) [FG 4963, reference compound] | 2.8 |  |  |  |  |  |
| COc1ccc(OC[C@@H]2CN(C)CC[C@H]2c2ccc(F)cc2)cc1 (single isomer, unassigned) [FG 8033, (-)-trans-4-(4-fluorophenyl)-3-[(4-methoxyphenoxy)-methyl]-1-methyl-piperidine] | 0.5 |  |  |  |  | degree of activity in test for potentiation of 5-hydroxytryptophane-induced hypermotility (in words) ([1]; mice): remarkably and unpredictably superior in its 5-HT potentiation to the most structurally closely-related compounds evaluated; 5-HT potentiation activity relative to FG 8032 [1, 4]: 46 times; 5-HT potentiation activity relative to FG 8032, percent [1, 4]: 4600%; superiority as to 5-HT potentiation over FG 4963, factor [1, 5]: 5.6; superiority as to 5-HT potentiation over FG 4963, percent [1, 5]: 560%; 5-HT potentiation activity relative to FG 4962 [1, 6]: 7.6 times; 5-HT potentiation activity relative to FG 4962, percent [1, 6]: 760%; Therapeutic Index (in words) ([2]; calculated as LD50/ED50): even more remarkably and unpredictably superior to those most structurally closely-related compounds when considering its Therapeutic Index; Therapeutic Index relative to FG 8032 [2, 4]: more than 47 times; Therapeutic Index relative to FG 8032, percent [2, 4]: > 4700%; superiority as to Therapeutic Index over FG 4963, factor [2, 5]: greater than 5.97 times; superiority as to Therapeutic Index over FG 4963, percent [2, 5]: > 597%; Therapeutic Index relative to FG 4962 [2, 6]: more than 15 times; Therapeutic Index relative to FG 4962, percent [2, 6]: > 1500% |
| CC(=O)O.COc1ccc(OC[C@@H]2CNCC[C@H]2c2ccc(F)cc2)cc1 (single isomer, unassigned) [FG 8035, (+)-trans-4-(4-fluorophenyl)-3-((4-methoxyphenoxy)methyl)-piperidine acetate] | 22 | 4400 | 44 | 3333 | 33.33 |  |
| COc1ccc(OC[C@@H]2CN(C)CC[C@H]2c2ccc(F)cc2)cc1.Cl (single isomer, unassigned) [FG 8032, (+)-trans-4-(4-fluorophenyl)-3-[(4-methoxyphenoxy)methyl]-1-methylpiperidine hydrochloride] | 23 |  |  |  |  |  |
| COc1ccc(OC[C@@H]2CN(C)CC[C@H]2c2ccccc2)cc1 (relative stereo) [FG 4932, reference compound] | 7.7 |  |  |  |  |  |
| COc1ccc(OC[C@@H]2CNCC[C@H]2c2ccccc2)cc1 (single isomer, unassigned) [FG 7006, reference compound] | 20 | 4000 | 40 | 4444 | 44.44 | selectivity ratio [3]: 18; Test 001 acute toxicity LD50 ([2]; mice, s.c., lethality at 24 hours, water-soluble salt): 350 mg/kg |
